Experimental findings from publication PMC6273963, “Design, Synthesis, and Biological Evaluation of Some Novel Pyrrolizine Derivatives as COX Inhibitors with Anti-Inflammatory/Analgesic Activities and Low Ulcerogenic Liability” (Molecules, 2016) are described below.

Entries after “also recorded” stand apart in the source; their conditions may differ.

Data set [1] addresses T1, COX-2 (human recombinant) (Homo sapiens, UniProt P35354).
T1 sequence (P35354 18-604): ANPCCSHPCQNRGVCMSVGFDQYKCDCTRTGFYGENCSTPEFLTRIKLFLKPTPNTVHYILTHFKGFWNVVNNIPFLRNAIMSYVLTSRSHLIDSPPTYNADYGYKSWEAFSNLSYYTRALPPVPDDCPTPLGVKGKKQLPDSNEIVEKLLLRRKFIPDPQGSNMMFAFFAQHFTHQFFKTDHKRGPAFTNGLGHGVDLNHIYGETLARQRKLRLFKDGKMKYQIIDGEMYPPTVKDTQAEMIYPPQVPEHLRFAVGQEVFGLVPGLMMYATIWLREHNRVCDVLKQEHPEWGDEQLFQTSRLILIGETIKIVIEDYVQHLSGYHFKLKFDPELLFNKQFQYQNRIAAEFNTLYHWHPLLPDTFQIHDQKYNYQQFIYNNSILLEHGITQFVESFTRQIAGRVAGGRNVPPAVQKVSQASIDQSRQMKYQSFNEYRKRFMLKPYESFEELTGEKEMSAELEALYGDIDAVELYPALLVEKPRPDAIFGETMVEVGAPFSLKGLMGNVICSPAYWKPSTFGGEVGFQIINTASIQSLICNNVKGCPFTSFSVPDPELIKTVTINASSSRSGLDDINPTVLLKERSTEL
Put plainly: COX colorimetric inhibitor screening assay, COX-2. The settings on record: for SI (COX-2 selectivity index = IC50 of COX-1/IC50 of COX-2): in vitro.

Data set [2] has as its system stomach mucosa, submucosa and mucosal glands. The data set is described as follows: Histopathological study of rat stomach. It counts as in vivo. The conditions noted are these: rats of the ulcerogenicity test, haematoxylin and eosin stain.
Source text: The stomachs of the rats used in ulcerogenicity test were subjected to a histopathological study to visualize the deep effects of ibuprofen and tested compounds on the stomach mucosa, submucosa and mucosal glands. The specimens were stained with haematoxylin and eosin stain [33].
The study investigated the deep effect of the tested compounds on the mucosa, submucosa and mucosal gland. The stomachs which were opened longitudinally along the greater curvature were used and the specimens were taken from the stomachs of all cases. These specimens were fixed in 10% formalin solution for 72 h. The samples were processed and embedded in paraffin wax. Microtomy was done and 5 microns tissue sections were obtained and mounted on clean glass slides.
For data set [3], the system named is carrageenan-induced rat paw edema. The data set is described as follows: Carrageenan-induced rat paw edema model (anti-inflammatory activity). The conditions noted are these: for % Inhibition in Edema Thickness 1 h: 1 h after induction of inflammation; for % Inhibition in Edema Thickness 1 h / % Inhibition in Edema Thickness 2 h / % Inhibition in Edema Thickness 3 h: IP, dose molecularly equivalent to ibuprofen, n = 6; for % Inhibition in Edema Thickness 2 h: 2 h after induction of inflammation; for % Inhibition in Edema Thickness 3 h: 3 h after induction of inflammation; for Potency (anti-inflammatory activity of tested compound/ibuprofen): after 3 h of induction of inflammation, relative to ibuprofen; for anti-inflammatory activity (in words): compared with ibuprofen and parent compound 12. Also noted: key to Potency (anti-inflammatory activity of tested compound/ibuprofen): ratio of % inhibition of edema (compound / ibuprofen); ibuprofen = 1.00. The data set is classed as in vivo. From the text: The carrageenan-induced rat paw edema model was utilized to investigate the anti-inflammatory activity of compounds 12–19 relative to ibuprofen as a reference drug.
(§1) Adult albino rats of both sex weighing 100–140 g were used in evaluation of the anti-inflammatory, analgesic, ulcerogenic activity in addition to the histopathological study of the new pyrrolizines 12–19. Animal ethical use clearance was obtained from the Ethical Committee at the College of Pharmacy, Umm Al-Qura University. Normalization of the animals with laboratory conditions were achieved by keeping them in laboratory one week before starting the experiments. Standard rat pellet diet was used for feeding animals and water ad libitum.
The anti-inflammatory activity of the novel compounds 12–19 was evaluated in comparison with ibuprofen as a standard, using a rat paw edema model as described by Winter et al.. Adult albino rats of both sexes (100–140 gm) were used. Rats were uniformly hydrated by giving 3 mL water for each rat through gastric inoculation to reduce variability to edema response. Animals were then divided into groups of six animal each. The control group was given saline solution containing few drops of sodium carboxymethyl cellulose (CMC) 1% and DMSO. Ibuprofen (50 and 100 mg/kg) was given as standard drug. The new compounds 12–19 in a dose molecularly equivalent to ibuprofen were dissolved in 0.5 mL DMSO and CMC 1% was added dropwise with continuous triturating to complete the specified volume. The tested compounds were administered intraperitoneally (IP). The induction of inflammation was achieved by subcutaneous (SC) injection of carrageenan-sodium gel, into the sub-plantar region of the right hind paw. The dorsoventral diameter (thickness) of the right and left hind paw of each rat was measured using digital calipers with accuracy of 0.01 mm (Cole-Parmer, Vernon Hills, IL, USA). The thickness of edema was measured 1, 2 and 3 h after induction of inflammation. The left hind paw diameter served as a control for the degree of inflammation in the right hind paw. The changes in the edema thickness were expressed as mean ± SEM, Figure 4. The anti-inflammatory activity was calculated as % inhibition of inflammation = (1 − Lt/Lc) × 100. Where Lt is the mean increase in paw thickness in rats treated with the tested compounds and Lc is the mean increase in paw thickness in control group. Data were collected, and statistically analyzed by One way ANOVA followed by student-Newman-Keuls multiple comparison test, Table 2.

The next data set deals with T2, COX-1 (ovine) (Ovis aries, UniProt P05979).
T2 sequence (P05979 25-600): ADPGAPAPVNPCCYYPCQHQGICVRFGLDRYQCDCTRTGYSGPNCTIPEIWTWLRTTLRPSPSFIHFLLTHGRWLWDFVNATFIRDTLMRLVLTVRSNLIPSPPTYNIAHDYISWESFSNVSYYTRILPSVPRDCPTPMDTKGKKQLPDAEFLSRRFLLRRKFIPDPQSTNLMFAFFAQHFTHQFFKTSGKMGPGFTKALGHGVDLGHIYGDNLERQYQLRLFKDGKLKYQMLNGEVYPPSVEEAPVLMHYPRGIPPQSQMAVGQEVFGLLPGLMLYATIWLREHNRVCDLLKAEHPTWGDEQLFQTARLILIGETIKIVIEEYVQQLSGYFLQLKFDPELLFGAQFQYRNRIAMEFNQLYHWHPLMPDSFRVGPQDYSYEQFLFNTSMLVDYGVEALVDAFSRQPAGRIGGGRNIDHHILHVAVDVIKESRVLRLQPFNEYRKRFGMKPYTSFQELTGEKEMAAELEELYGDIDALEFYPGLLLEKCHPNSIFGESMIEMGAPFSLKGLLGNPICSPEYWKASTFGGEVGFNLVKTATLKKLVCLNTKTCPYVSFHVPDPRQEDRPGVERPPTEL
The data set is described as follows: COX colorimetric inhibitor screening assay, COX-1.

The test system of a further data set is thermal pain (hot plate). Put plainly: Hot-plate test (analgesic activity). The data set is classed as in vivo, rat. The settings on record: IP; for analgesic potency relative to ibuprofen: 0.48 mmol/kg; for analgesic activity (in words): 0.24 and 0.48 mmol/kg, 2 h after injection, compared with ibuprofen.
The next data set concerns rat stomach mucosa. The data set is described as follows: Acute ulcerogenicity study. The data set is classed as in vivo. The conditions noted are these: oral, 0.48 mmol/kg; for Ulcerogenicity UI (ulcer index): three days, n = 6. Here is the method: GIT toxicity is the main serious side effect of the NSAIDs. In this work, the ulcerogenicity of the novel compounds 12–19 was evaluated according to the previous reported methodology. The tested compounds 12–19 and ibuprofen were given orally in a dose of 0.48 mmol/kg.
as §1
GIT toxicity was evaluated according to the previous report. Adult albino rats of both sexes were divided into groups of six animals each. The test compounds were dissolved first in 0.5 mL DMSO, then CMC (1%) was added dropwise with trituration. Rats were fasted 20 h before drug administration. The eight tested compounds and ibuprofen were given orally in a dose of 0.24 and 0.48 mmol/kg/day suspended in 1% CMC, while the control group received vehicle (1% CMC containing few drops of DMSO). Rats were then fasted for 2 h, allowed to feed for 2 h then fasted again for another 20 h. Other doses were given in the second and third days. In the fourth day, Pentobarbital (60 mg/kg IP) was used to induce deep anesthesia then rats were sacrificed. The stomachs were removed, opened along with the greater curvature and rinsed with 0.9% saline. The number of mucosal damages (red spots) were counted using magnifying lens and their severity (ulcerogenic severity) was graded in a scale from 0 to 3 as follows: (0) normal (no injury), (0.5) red coloration, (1) spot ulcer, (1.5) hemorrhagic streaks, (2) ulcer > 3 mm, (3) ulcer > 5 mm. The ulcer index was calculated using the following equation ulcer index (UI) = UN + US + UP/10, where UN is the average number pf ulcers per animal, US is the average of severity score, UP is the percent of animal with ulcer.

Procedure for thermal pain (hot plate): A hot-plate was used to induce thermal pain and the cutoff time was fixed to 15 s [30]. […] The analgesic activity of the novel pyrrolizines were carried out using the thermal model (hot-plate test) according to a previous report [30]. An electronically controlled hot-plate (Harvard Apparatus Ltd., Kent, UK) was used and the cut-off time was 15 s and the temperature was adjusted to 52 ± 0.1 °C. Animals were then divided into groups of six animal each. Rats were assigned numbers of 1–6 in each group. The reference drug was given intraperitoneally at a dose of 50 mg/kg (0.24 mmol/kg) and 100 mg/kg (0.48 mmol/kg). […] The response latencies (time elapsed until licking paw or jumping) were measured and expressed as mean ± SEM. The percent changes (analgesic effects) of the tested compounds were calculated as percent change in latencies divided by baseline time (100 × (T1 − T0)/T0) and results were expressed as % change ± SEM, Figure 6.

In the case of `N#Cc1c(N)c(C(=O)Nc2ccc(Br)cc2)n2c1CCC2` [Compound 12, 6-Amino-N-(4-bromophenyl)-7-cyano-2,3-dihydro-1H-pyrrolizine-5-carboxamide], in data set [1], the IC50 was found to be 1.27 µM and the “SI (COX-2 selectivity index = IC50 of COX-1/IC50 of COX-2)” value is on record as 3.64. Besides, the “histopathological findings in stomach transverse sections” value (“histopathological findings” below) in data set [2] is listed as “variable degrees of necrosis with some leukocytes infiltration”. In data set [3], the “% Inhibition in Edema Thickness 1 h” value stood at 21.20%, the “% Inhibition in Edema Thickness 2 h” value is 37.40%, the “% Inhibition in Edema Thickness 3 h” value is reported as 44.79% and the “Potency (anti-inflammatory activity of tested compound/ibuprofen)” value is on record as 1.10. Moreover, the “anti-inflammatory activity (in words)” value in data set [3] is given as “higher anti-inflammatory activity than that of ibuprofen”. Also, the IC50 at COX-1 (ovine) was found to be 4.64 µM. Moreover, in the data set with thermal pain (hot plate), the “analgesic potency relative to ibuprofen” value was in the range of 1.03 to 1.27 times and the “analgesic activity (in words)” value is “higher analgesic activity than ibuprofen”. For the same compound, in the data set on rat stomach mucosa, the “Ulcerogenicity UI (ulcer index)” value is 4.66 and the “Ulcerogenicity % Protection (% inhibition of ulcer relative to ibuprofen)” value is reported as 66.38%.
As for `N#Cc1c(NC(=O)CCl)c(C(=O)Nc2ccc(Br)cc2)n2c1CCC2` [Compound 13, N-(4-Bromophenyl)-6-(2-chloroacetamido)-7-cyano-2,3-dihydro-1H-pyrrolizine-5-carboxamide], in data set [1], the IC50 was found to be 1.64 µM and the “SI (COX-2 selectivity index = IC50 of COX-1/IC50 of COX-2)” value is given as 3.48. Further, in data set [2], the “histopathological findings” value is given as “variable degrees of necrosis with some leukocytes infiltration”. Further, in data set [3], the “% Inhibition in Edema Thickness 1 h” value worked out at 16.13%, the “% Inhibition in Edema Thickness 2 h” value is on record as 35.43%, the “% Inhibition in Edema Thickness 3 h” value was 52.31% and the “Potency (anti-inflammatory activity of tested compound/ibuprofen)” value was determined as 1.28. Further, the “anti-inflammatory activity (in words)” value in data set [3] is listed as “the highest anti-inflammatory activity”. At COX-1 (ovine), this compound registered an IC50 of 5.69 µM. Further, in the data set with thermal pain (hot plate), the “analgesic potency relative to ibuprofen” value is on record as 1.03 to 1.27 times and the “analgesic activity (in words)” value is “higher analgesic activity than ibuprofen”. In addition, in the data set with rat stomach mucosa, the “Ulcerogenicity UI (ulcer index)” value turned out to be 4.41 and the “Ulcerogenicity % Protection (% inhibition of ulcer relative to ibuprofen)” value is 68.18%.
In the case of `CN1CCN(CC(=O)Nc2c(C#N)c3n(c2C(=O)Nc2ccc(Br)cc2)CCC3)CC1` [Compound 14, N-(4-Bromophenyl)-7-cyano-6-(2-(4-methylpiperazin-1-yl)acetamido)-2,3-dihydro-1H-pyrrolizine-5-carbox-amide], in data set [1], the IC50 is 1.09 µM and the “SI (COX-2 selectivity index = IC50 of COX-1/IC50 of COX-2)” value was determined as 3.21. The “histopathological findings” value in data set [2] was “variable degrees of necrosis with some leukocytes infiltration”. In addition, in data set [3], the “% Inhibition in Edema Thickness 1 h” value was 8.30%, the “% Inhibition in Edema Thickness 2 h” value was 9.84%, the “% Inhibition in Edema Thickness 3 h” value is given as 16.37% and the “Potency (anti-inflammatory activity of tested compound/ibuprofen)” value turned out to be 0.40. The “anti-inflammatory activity (in words)” value in data set [3] is recorded as “the least active one”. In addition, the IC50 against COX-1 (ovine) turned out to be 3.5 µM. Besides, the “analgesic activity (in words)” value with thermal pain (hot plate) is “lower than that of ibuprofen; also recorded: the least active”. In the data set with rat stomach mucosa, the “Ulcerogenicity UI (ulcer index)” value is on record as 4.66 and the “Ulcerogenicity % Protection (% inhibition of ulcer relative to ibuprofen)” value amounted to 66.38%.
For the compound `N#Cc1c2c(n3c1CCC3)C(=O)N(c1ccc(Br)cc1)CC(=O)N2` [Compound 15, 4-(4-Bromophenyl)-2,5-dioxo-1,2,3,4,5,7,8,9-octahydro-[1,4]diazepino[5,6-b]pyrrolizine-10-carbonitrile], in data set [1], the IC50 was 1.06 µM. Besides, the “histopathological findings” value in data set [2] is “little histopathological effects such as congested blood vessels and variable degrees of leukocytes infiltration”. Besides, in data set [3], the “% Inhibition in Edema Thickness 1 h” value turned out to be 10.60%, the “% Inhibition in Edema Thickness 2 h” value is given as 16.54%, the “% Inhibition in Edema Thickness 3 h” value is 24.91% and the “Potency (anti-inflammatory activity of tested compound/ibuprofen)” value is given as 0.61. Further, the IC50 at COX-1 (ovine) is 3.37 µM. The “analgesic activity (in words)” value in the data set on thermal pain (hot plate) is “lower than that of ibuprofen”.
For the compound `CC(C)Cc1ccc(C(C)C(=O)O)cc1` (centres unmarked) [Ibuprofen, reference compound], the “histopathological findings” value in data set [2] is “severe damage represented by leukocytes infiltration and necrosis in the mucosa layer with hypertrophy in mucosal glands”. Also, in data set [3], the “% Inhibition in Edema Thickness 1 h” value is reported as 25.81%, the “% Inhibition in Edema Thickness 2 h” value stood at 33.46%, the “% Inhibition in Edema Thickness 3 h” value is given as 40.82% and the “Potency (anti-inflammatory activity of tested compound/ibuprofen)” value was 1.00. Moreover, in the data set on rat stomach mucosa, the “Ulcerogenicity UI (ulcer index)” value is on record as 13.86 and the “Ulcerogenicity % Protection (% inhibition of ulcer relative to ibuprofen)” value came to 0%.
